Data from paper PMC5569935, “Pleiotropic Effects of Biguanides on Mitochondrial Reactive Oxygen Species Production” (Oxidative Medicine and Cellular Longevity, 2017).
pIC50: −log10 of the molar value.

How the values were obtained:
[1] = system: H2O2 (ROS) production of BAT mitochondria; experiment: Fluorometric detection of hydrogen peroxide production (Amplex UltraRed) in fresh BAT mitochondria; assay type: biochemical, rat; conditions: for ROS production on titration, all substrates tested: metformin 0–200 mM or phenformin 0–60 mM, pattern highly similar for all substrates
Description: (§1) We used interscapular brown adipose tissue (BAT) of four-week-old Wistar rats kept at 22°C under 12 h/12 h light/dark cycle on a standard diet and water supply ad libitum. All animal works were approved by the institutional ethics committee and were in accordance with the EU Directive 2010/63/EU for animal experiments. Mitochondria were isolated in STE medium (250 mM sucrose, 10 mM Tris–HCl, 1 mM EDTA, pH 7.4) and supplemented with BSA (10 mg/mL) by differential centrifugation. Quality of isolation was routinely checked by oxygraph, and fresh mitochondria were used for measurements of oxygen consumption and hydrogen peroxide production. Subsequently, frozen-thawed mitochondria were used for determination of enzymatic activities; as in such preparations, the integrity of mitochondrial membrane is disrupted and NADH has therefore access to the oxidation site of NDH. Also, freezing/thawing ensures that the membrane potential is not maintained.
Hydrogen peroxide production was determined fluorometrically by measuring oxidation of Amplex UltraRed (Thermo Fisher) essentially as before. Fluorescence of the Amplex UltraRed oxidation product was measured at 37°C using Tecan Infinite M200 multiwell fluorometer. Excitation/emission wavelengths were 544 nm (bandwidth 15 nm)/590 nm (bandwidth 30 nm). The assay was performed with 10 μg of mitochondrial protein in KCl-based medium (120 mM KCl, 3 mM HEPES, 5 mM KH2PO4, 3 mM MgSO4, 1 mM EGTA, 3 mg/mL BSA, pH 7.2) supplemented either with 10 mM pyruvate plus 2 mM malate, 10 mM succinate, or 10 mM GP. Amplex UltraRed was used at the final concentration of 50 μM with horseradish peroxidase (HRP) at 1 U/mL. Fluorescence signal from the well containing all substrates and inhibitors, but not mitochondria, was subtracted as a background for every experimental condition used. Background, caused mostly by autoxidation of the dye or nonenzymatic effect of inhibitors on apparent ROS production, varied between conditions from 0 to 1 pmol/s/mg and was uniform across respective titration points. Signal was calibrated using H2O2 at the final concentration of 0–5 μM, and H2O2 stock concentration was routinely checked by measuring its absorption at 240 nm.

treated patients = conditions: cited from earlier work
[2] = target: T1, succinate dehydrogenase (SDH) (Rattus norvegicus, UniProt P21913+Q641Z9+Q6PCT8+Q920L2); experiment: SDH activity (succinate:CoQ1 oxidoreductase / succinate respiration) in BAT mitochondria; assay type: biochemical
T1 construct: from tissue; host or cells: mitochondria isolated from rat interscapular brown adipose tissue
T1 sequence (Q920L2 35-656): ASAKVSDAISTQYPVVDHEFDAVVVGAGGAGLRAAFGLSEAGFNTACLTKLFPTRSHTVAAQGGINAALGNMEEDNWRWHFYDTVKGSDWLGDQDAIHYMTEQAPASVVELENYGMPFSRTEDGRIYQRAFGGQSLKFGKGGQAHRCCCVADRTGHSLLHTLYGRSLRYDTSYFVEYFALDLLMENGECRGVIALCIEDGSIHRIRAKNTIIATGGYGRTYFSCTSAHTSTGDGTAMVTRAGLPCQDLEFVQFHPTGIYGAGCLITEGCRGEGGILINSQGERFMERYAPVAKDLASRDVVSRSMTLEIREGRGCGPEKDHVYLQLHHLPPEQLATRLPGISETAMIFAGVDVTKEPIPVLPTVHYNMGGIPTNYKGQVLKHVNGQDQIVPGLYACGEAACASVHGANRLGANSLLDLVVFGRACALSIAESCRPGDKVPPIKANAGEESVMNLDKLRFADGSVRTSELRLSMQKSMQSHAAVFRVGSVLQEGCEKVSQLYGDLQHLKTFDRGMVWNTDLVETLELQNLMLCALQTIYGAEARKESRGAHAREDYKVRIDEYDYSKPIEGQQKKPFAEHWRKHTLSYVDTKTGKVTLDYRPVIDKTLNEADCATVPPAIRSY
T1 sequence (P21913 31-282): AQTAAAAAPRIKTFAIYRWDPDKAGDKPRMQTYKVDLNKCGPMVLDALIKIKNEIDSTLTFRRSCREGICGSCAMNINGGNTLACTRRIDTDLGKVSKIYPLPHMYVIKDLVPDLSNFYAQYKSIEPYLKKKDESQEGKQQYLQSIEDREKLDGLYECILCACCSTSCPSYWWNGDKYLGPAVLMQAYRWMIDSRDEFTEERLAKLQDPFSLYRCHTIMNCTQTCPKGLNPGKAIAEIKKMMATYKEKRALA
T1 sequence (Q641Z9 30-169 limits assumed): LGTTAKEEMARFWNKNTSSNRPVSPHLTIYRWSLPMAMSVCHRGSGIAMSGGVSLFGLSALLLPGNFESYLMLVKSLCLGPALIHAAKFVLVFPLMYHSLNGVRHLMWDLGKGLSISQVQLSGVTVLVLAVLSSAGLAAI
T1 sequence (Q6PCT8 57-159): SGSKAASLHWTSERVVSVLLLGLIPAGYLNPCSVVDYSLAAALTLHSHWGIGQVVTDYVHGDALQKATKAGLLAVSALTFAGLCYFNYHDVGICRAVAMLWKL
Description: as §1, with “Subsequently, frozen-thawed mitochondria were used for determination of enzymatic activities; as in such preparations, the integrity of mitochondrial membrane is disrupted and NADH has therefore access to the oxidation site of NDH. Also, freezing/thawing ensures that the membrane potential is not maintained.” left out
(§2) Activities of mitochondrial dehydrogenases were determined spectrophotometrically as NADH oxidoreductases (NDH, monitored at 340 nm, ε340 = 6.22 mM^−1·cm^−1) or CoQ1 oxidoreductases (SDH and mGPDH, monitored at 275 nm, ε275 = 13.6 mM^−1·cm^−1). […] The reaction was started by adding 100 μM NADH, 25 mM glycerophosphate (GP), or 25 mM succinate, respectively, and after 5–10 minutes, changes of absorbance were monitored at 30°C. Enzyme activities were expressed as pmol/s/mg protein.
Oxygen consumption was measured at 30°C as described before using Oxygraph-2k (Oroboros, Austria). […]

[3] = target: T2, mitochondrial glycerophosphate dehydrogenase (mGPDH) (Rattus norvegicus, UniProt P35571); experiment: mGPDH activity (glycerophosphate:CoQ1 oxidoreductase) in BAT mitochondria; assay type: biochemical
T2 construct: from tissue; host or cells: mitochondria isolated from rat interscapular brown adipose tissue
T2 sequence (P35571 43-727): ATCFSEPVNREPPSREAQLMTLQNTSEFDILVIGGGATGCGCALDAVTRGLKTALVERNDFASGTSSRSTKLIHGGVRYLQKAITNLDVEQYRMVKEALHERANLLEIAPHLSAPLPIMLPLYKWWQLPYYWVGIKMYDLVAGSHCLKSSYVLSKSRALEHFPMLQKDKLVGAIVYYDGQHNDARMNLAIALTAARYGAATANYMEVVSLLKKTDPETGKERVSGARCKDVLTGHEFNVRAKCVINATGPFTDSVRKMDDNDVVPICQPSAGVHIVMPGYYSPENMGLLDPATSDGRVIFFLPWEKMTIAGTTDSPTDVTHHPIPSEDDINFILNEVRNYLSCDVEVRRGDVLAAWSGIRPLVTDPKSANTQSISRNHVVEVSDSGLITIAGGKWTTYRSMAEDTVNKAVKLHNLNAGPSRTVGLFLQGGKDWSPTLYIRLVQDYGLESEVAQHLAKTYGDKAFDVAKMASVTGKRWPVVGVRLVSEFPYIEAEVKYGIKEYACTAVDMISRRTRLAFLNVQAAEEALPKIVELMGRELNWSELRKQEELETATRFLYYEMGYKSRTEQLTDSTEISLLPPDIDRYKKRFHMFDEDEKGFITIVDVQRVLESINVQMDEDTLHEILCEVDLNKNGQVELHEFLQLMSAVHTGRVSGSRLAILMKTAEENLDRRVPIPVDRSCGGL
Description: as §1, with “Also, freezing/thawing ensures that the membrane potential is not maintained.” left out
as §2

[4] = target: respiratory chain dehydrogenases NDH, SDH, and mGPDH; experiment: Enzyme activity assays of mitochondrial dehydrogenases in frozen-thawed BAT mitochondria (spectrophotometry); assay type: biochemical, rat; conditions: isolated BAT mitochondria, range over all three enzymes, read-out: IC50, inhibition of respiratory chain dehydrogenase enzyme activities (NDH, SDH, mGPDH)
Description: as §1, with “Also, freezing/thawing ensures that the membrane potential is not maintained.” left out
as §2

[5] = system: respiration of BAT mitochondria (pyruvate plus malate, succinate, glycerophosphate); experiment: Polarographic oxygen consumption of isolated BAT mitochondria with substrates of NDH, SDH and mGPDH; assay type: biochemical, rat; conditions: at the same concentrations as enzyme inhibition (IC50 80 to 180 mM)
Description: as §1
(§3) Oxygen consumption was measured at 30°C as described before using Oxygraph-2k (Oroboros, Austria). Measurements were performed in 2 mL of KCl medium (80 mM KCl, 10 mM Tris–HCl, 3 mM MgCl2, 1 mM EDTA, 5 mM K-Pi, pH 7.4) using 15–60 μg protein/mL of freshly isolated mitochondria. For measurements, 10 mM pyruvate plus 2 mM malate, 10 mM succinate, or 10 mM GP, respectively, were used. The oxygen consumption was expressed in pmol oxygen/s/mg protein.

[6] = system: NADH dehydrogenase (complex I, NDH); experiment: NDH enzyme activity (NADH oxidoreductase) in BAT mitochondria; assay type: biochemical, rat
Description: as §1, with “Also, freezing/thawing ensures that the membrane potential is not maintained.” left out
as §2

[7] = reported values; cited from earlier work
[8] = system: pyruvate plus malate-supported oxygen consumption (NDH); experiment: Pyruvate plus malate-supported oxygen consumption of BAT mitochondria; assay type: biochemical, rat
Description: as §1, §3

**Q.** For `[H]/N=C(/N)N/C(=N/[H])NCCc1ccccc1` [phenformin], which “ROS production on titration, all substrates tested” value [1] is on record?
**A.** The value was “dose-dependent increase in ROS production”.

**Q.** What about the “Adverse effect leading to discontinued use” value (treated patients) of the same compound?
**A.** The value was “induction of lactic acidosis”.

**Q.** Which results are given for `O=C(O)CCC(=O)Nc1ccc(-c2nc3ccccc3[nH]2)cc1` [iGP-1]?
**A.** pIC50 ([2]; enzyme activity and oxygen consumption, 10 mM succinate (Figures 4(b) and 4(d)), read-out: IC50, nonspecific action on SDH): ~4.10; Concentration at which activity of mGPDH was abolished [3]: 50 µM; GP-dependent ROS production ([1]; 10 mM glycerophosphate, 100 μM iGP-1): inhibited

**Q.** What does the source list for `CN(C)C(=N)N=C(N)N` [metformin, dimethyl biguanide]?
**A.** pIC50 [4]: < 1.10; Effect on respiration with pyruvate and malate, succinate and glycerophosphate [5]: inhibited respiration; Sensitivity of NDH activity to inhibitory action relative to SDH and mGPDH ([6]; metformin titration 0–200 mM, 100 μM NADH): most sensitive; ROS production on titration, all substrates tested [1]: dose-dependent increase in ROS production; Concentration inside tumors [7]: 1000 to 10000 nM

**Q.** With `COc1[nH]c(=O)c(C(=O)[C@@H](C)C[C@H](C)[C@@H](Cl)CCl)c(O)c1OC` [atpenin A5] as the compound, how does the “Concentration of complete inhibition of SDH” value ([2]; succinate as a substrate) read?
**A.** The value was 20 nM.

**Q.** And the “ROS production with low levels of succinate” value ([1]; 0.4 mM succinate, 0.5 μM atpenin A5)?
**A.** Its value is “pronounced increase in ROS production”.

**Q.** For `C=C(C)[C@H]1Cc2c(ccc3c2O[C@@H]2COc4cc(OC)c(OC)cc4[C@@H]2C3=O)O1` [rotenone], which “Concentration of complete inhibition of complex I enzyme activity” value ([6]; BAT mitochondria) is on record?
**A.** Its value is 500 nM.

**Q.** And the “Concentration of complete inhibition of pyruvate plus malate-supported oxygen consumption” value [8]?
**A.** Its value is 500 nM.

**Q.** And the “Rate of H2O2 production with NADH-linked substrates” value ([1]; 10 mM pyruvate and 2 mM malate, 1 μM rotenone)?
**A.** The value was “increased the rate of H2O2 production”.
